Experiments:
NCI-H358 cell line = assay: proliferation assay (methylene blue assay) with NCI-H358 tumor cells; assay type: cell-based; conditions: Homo sapiens, read-out: Growth Inhibitory 50 (GI50)
NCI-H1975 cell line = assay: proliferation assay in EGFR inhibitor resistant NCI-H1975 cell line; assay type: cell-based; conditions: Homo sapiens; NCI-H1975 cell line (HER1 T790M)
[1] = system: panel of breast tumor cell lines; assay: antiproliferative activity in a panel of breast cancer cell lines (Methylene blue viable cell detection assay); assay type: cell-based, human
Procedure: The indicated cell lines are incubated with increasing amount of Compound A, and effect on the proliferation assessed with a Methylene blue viable cell detection assay. The cell lines indicated with a red asterisk are the ones in which cell death is observed (i.e. for which the absorbance observed for treated cells was lower than the original inoculum).
(§1) ErB-B2 (HER2) is often overexpressed in breast and ovarian cell lines.

NCI-H1975 tumors = conditions: for in vivo effect on tumor growth: s.c. NCI-H1975 tumors, athymic mice, p.o. (FIG. 3)
Procedure: Non small cell lung carcinoma cell lines with amplified EGFR, but refractory to EGFR inhibition therapy, are valuable models to test the sensitivity of PI3K inhibitors like the compounds of formula I in such genetic background. […] The in vivo antitumor activity of PI3K inhibitors like the compounds of formula I is tested against this EGFR driven and inhibitor resistant tumor model (FIG. 3).

BT474 tumors = assay: antitumor activity against s.c. BT474 xenografts; assay type: in vivo, mice; conditions: BT474 subcutaneous xenografts, 45 mg/kg, po, once per day (FIG. 6)
Text: as §1

Cn1c(=O)n(-c2ccc(C(C)(C)C#N)cc2)c2c3cc(-c4cnc5ccccc5c4)ccc3ncc21 [Compound A, 2-methyl-2-[4-(3-methyl-2-oxo-8-quinolin-3-yl-2,3-dihydro-imidazo[4,5-c]quinolin-1-yl)-phenyl]-propionitrile]
GI50 (NCI-H358 cell line): 31 nM
GI50 (NCI-H1975 cell line): 11.4 nM
GI50 ([1]; Homo sapiens, panel of breast tumor cell lines containing or not ErbB2 amplification, read-out: median GI50): 11.1 nM
cell death ([1]; cell lines that overexpressed ErbB2 (FIG. 5)): induces cell death
tolerability (body weight, control vs treatment groups) (NCI-H1975 tumors; mouse, in vivo): well tolerated
in vivo effect on tumor growth (NCI-H1975 tumors): causes in vivo tumor growth inhibition
in vivo antitumor effect (BT474 tumors): tumor regression

CCN1CCN(Cc2ccc(-c3cc4c(N[C@H](C)c5ccccc5)ncnc4[nH]3)cc2)CC1 [NVP-AEE788, reference compound]
in vivo effect on tumor growth (NCI-H1975 tumors): no significant inhibition on tumor growth

C#Cc1cccc(Nc2ncnc3cc(OCCOC)c(OCCOC)cc23)c1 [erlotinib, reference compound]
in vivo effect on tumor growth (NCI-H1975 tumors): no significant inhibition on tumor growth

Source: patent US20100196365A1, “USE OF IMIDAZOQUINOLINES FOR THE TREATMENT OF EGFR DEPENDENT DISEASES OR DISEASES THAT HAVE ACQUIRED RESISTANCE TO AGENTS THAT TARGET EGFR FAMILY MEMBERS” (priority 2007, published 2010)
